Assay results published in PMC11256326, “Discovery of Heparin Mimetic, Potent, and Selective Inhibitors of Human Clotting Factor XIIIa” (ACS Omega, 2024).
Marks after values point to notes of the source that are not given here.

Target: T1, FXIIIa (Homo sapiens, UniProt P00488)
T1 construct: purchased Haematologic Technologies; host or cells: human plasma
T1 sequence (P00488 39-732 limits assumed): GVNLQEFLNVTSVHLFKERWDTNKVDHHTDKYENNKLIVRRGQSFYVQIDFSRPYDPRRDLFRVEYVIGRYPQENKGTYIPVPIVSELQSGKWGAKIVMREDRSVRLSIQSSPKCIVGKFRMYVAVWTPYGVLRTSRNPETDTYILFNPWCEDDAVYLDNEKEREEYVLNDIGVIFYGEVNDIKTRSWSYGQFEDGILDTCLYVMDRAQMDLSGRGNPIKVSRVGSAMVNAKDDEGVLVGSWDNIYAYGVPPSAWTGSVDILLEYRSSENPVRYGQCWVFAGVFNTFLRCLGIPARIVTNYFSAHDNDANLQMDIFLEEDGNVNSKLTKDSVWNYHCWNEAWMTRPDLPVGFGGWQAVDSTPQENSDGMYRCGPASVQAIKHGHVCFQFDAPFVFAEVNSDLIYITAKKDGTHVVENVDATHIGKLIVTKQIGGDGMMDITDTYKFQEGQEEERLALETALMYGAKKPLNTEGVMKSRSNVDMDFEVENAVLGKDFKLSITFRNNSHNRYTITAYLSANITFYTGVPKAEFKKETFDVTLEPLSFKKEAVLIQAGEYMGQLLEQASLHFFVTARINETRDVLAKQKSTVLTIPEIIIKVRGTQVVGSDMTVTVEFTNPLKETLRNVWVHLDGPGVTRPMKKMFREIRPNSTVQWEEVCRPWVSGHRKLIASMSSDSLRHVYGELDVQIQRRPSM
Experiment: Michaelis-Menten kinetics of dansylcadaverine and N,N-dimethylcasein conjugation by human FXIIIa
Assay type: biochemical
Conditions: for VMAX, dansylcadaverine varied: N,N-dimethylcasein 5 mg/mL; for VMAX, dimethylcasein varied: dansylcadaverine 250 μM
Method: To elucidate the FXIIIa inhibitory capacity of compound 16, the kinetics of dansylcadaverine conjugation with dimethylcasein by FXIIIa were investigated with and without the inhibitor using the bisubstrate fluorescence assay.[36],[49],[55] At a fixed, high concentration of dansylcadaverine (250 μM), the initial rate of conjugation increased in a hyperbolic manner with increasing concentration of dimethylcasein (0–15 mg/mL) (Figure 6A) in the presence as well as absence of inhibitor 16. Analysis using the Michaelis equation led to KM values for dimethylcasein of 0.65 ± 0.04 mg/mL (∼29.5 μM) and 7.54 ± 0.90 mg/mL (∼342.7 μM) in the absence and presence of 16, respectively (Table 4). […] To derive kinetic constants for dansylcadaverine, we used a fixed, high concentration of dimethylcasein (5 mg/mL) and studied the initial rate of conjugation, as described above. […] It is important to note that FXIIIa-mediated reaction is a bisubstrate conjugation reaction and its interaction with inhibitor 16 is sensed differently by the two substrates. […] Yet, for both substrates, there was a similar slight decrease (∼1.5-fold) in the VMAX with the same inhibitor concentration. In these experiments inhibitor 16 was used at varying levels, of which the highest concentration ensured that FXIIIa was essentially fully saturated and inhibited.
The initial rate of FXIIIa-mediated conjugation between dansylcadaverine and N,N-dimethylcasein was determined by monitoring the linear increase in fluorescence at λEM = 550 nm (λEX = 360 nm). This initial rate was assessed as a function of various concentrations of either (1) dansylcadaverine (ranging from 0 to 15 mM; resulting effective concentrations in the well were 0–750 μM) at a fixed saturating concentration of dimethylcasein (5 mg/mL), or (2) dimethylcasein (ranging from 0 to 15 mg/mL) at a fixed concentration of dansylcadaverine (5 mM; resulting effective concentration of 250 μM), both in the absence or presence of inhibitor 16 (at concentrations of 0, 0.5, 2.5, 15, and 25 μM). These assays were conducted in 50 mM Tris-HCl buffer at pH 8.0, containing 100 mM NaCl, 1 mM DTT, and 10 mM CaCl2 at 37 °C. The obtained data were fitted using the standard Michaelis–Menten equation (eq 2) to determine the values of KM and VMAX. [drawing 2] 2

For `Nc1c(/N=N/c2ccc(S(=O)(=O)CCOS(=O)(=O)O)cc2)c(S(=O)(=O)O)cc2cc(S(=O)(=O)O)c(/N=N/c3ccc(S(=O)(=O)CCOS(=O)(=O)O)cc3)c(O)c12` [compound 16], the “mechanism of FXIIIa inhibition (Michaelis–Menten kinetics)” value was “only competes with the Gln-donor protein substrate”, the “decrease in VMAX, dansylcadaverine varied” value (16 at 25 μM vs absence) was about 1.5 fold and the “decrease in VMAX, dimethylcasein varied” value (16 at 25 μM vs absence) was about 1.4 fold. For the same compound, the “decrease in dansylcadaverine binding affinity (KM increase)” value (16 at 25 μM vs absence) was about 2 fold, the “decrease in dimethylcasein binding affinity (KM increase)” value (16 at 25 μM vs absence) was about 11.6 fold and the “VMAX, dansylcadaverine varied” value ([16] = 0.5 μM) was 111.4 ± 4.1 RFU/min (×10^3). The “VMAX, dimethylcasein varied” value ([16] = 0.5 μM) was 43.5 ± 2.4 RFU/min (×10^3), the “VMAX, dansylcadaverine varied” value ([16] = 2.5 μM) was 89.76 ± 3.8 RFU/min (×10^3) and the “VMAX, dimethylcasein varied” value ([16] = 2.5 μM) was 42.0 ± 0.6 RFU/min (×10^3). For the same compound, the “VMAX, dansylcadaverine varied” value ([16] = 15 μM) was 81.94 ± 4.0 RFU/min (×10^3), the “VMAX, dimethylcasein varied” value ([16] = 15 μM) was 44.5 ± 1.5 RFU/min (×10^3) and the “VMAX, dansylcadaverine varied” value ([16] = 25 μM) was 69.69 ± 2.9 RFU/min (×10^3). The “VMAX, dimethylcasein varied” value ([16] = 25 μM) was 34.9 ± 2.0 RFU/min (×10^3).
